These results are taken from US11492335B2, “Aryl or heteroaryl triazolone derivatives or salts thereof, or pharmaceutical compositions comprising the same” (YUHAN CORPORATION, priority 2018, dated 2022).

Counter-ions that a name gives are not always drawn. Like-named read-outs stand apart in the source and are kept apart here.

Holding throughout (type): biochemical
Experiment [1] addresses T1, recombinant human MAO-B (monoamine oxidase-B) (Homo sapiens, UniProt P27338).
T1 construct: purchased Sigma-Aldrich
T1 sequence (P27338 1-520): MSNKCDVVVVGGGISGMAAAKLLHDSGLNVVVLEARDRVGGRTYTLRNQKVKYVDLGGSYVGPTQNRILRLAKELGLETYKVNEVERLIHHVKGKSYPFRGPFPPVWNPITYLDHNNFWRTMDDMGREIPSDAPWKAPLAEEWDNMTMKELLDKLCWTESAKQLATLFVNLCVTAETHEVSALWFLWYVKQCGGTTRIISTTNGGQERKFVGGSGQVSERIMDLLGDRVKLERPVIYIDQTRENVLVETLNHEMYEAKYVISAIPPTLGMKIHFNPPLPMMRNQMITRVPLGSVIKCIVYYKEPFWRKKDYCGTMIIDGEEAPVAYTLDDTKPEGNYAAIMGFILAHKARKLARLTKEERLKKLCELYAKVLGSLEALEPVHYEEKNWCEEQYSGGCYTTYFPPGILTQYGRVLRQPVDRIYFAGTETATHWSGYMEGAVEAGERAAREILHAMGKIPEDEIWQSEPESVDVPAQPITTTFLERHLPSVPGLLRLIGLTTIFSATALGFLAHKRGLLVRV
Kind of experiment: Activity on recombinant human MAO-B, Amplex Red method, 1 mM benzylamine substrate. Particulars: read-out: Inhibitory Activity (IC50, nM) MAO-B. An outline of the steps: (§1)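 Enzyme preincubated with compound 30 min at 37 °C in 50 mM sodium phosphate pH 7.4, final DMSO below 1%. Substrate was 0.5 mM tyramine for MAO-A and 1 mM benzylamine for MAO-B, with 200 uM Amplex Red and 1 U/mL HRP. H2O2-coupled resorufin fluorescence (ex 544/em 590) followed over 1–2 h; 8-point 4-parameter IC50.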

In experiment [2] the target is T2, recombinant human MAO-A (monoamine oxidase-A) (Homo sapiens, UniProt P21397).
T2 construct: purchased Sigma-Aldrich
T2 sequence (P21397 1-527): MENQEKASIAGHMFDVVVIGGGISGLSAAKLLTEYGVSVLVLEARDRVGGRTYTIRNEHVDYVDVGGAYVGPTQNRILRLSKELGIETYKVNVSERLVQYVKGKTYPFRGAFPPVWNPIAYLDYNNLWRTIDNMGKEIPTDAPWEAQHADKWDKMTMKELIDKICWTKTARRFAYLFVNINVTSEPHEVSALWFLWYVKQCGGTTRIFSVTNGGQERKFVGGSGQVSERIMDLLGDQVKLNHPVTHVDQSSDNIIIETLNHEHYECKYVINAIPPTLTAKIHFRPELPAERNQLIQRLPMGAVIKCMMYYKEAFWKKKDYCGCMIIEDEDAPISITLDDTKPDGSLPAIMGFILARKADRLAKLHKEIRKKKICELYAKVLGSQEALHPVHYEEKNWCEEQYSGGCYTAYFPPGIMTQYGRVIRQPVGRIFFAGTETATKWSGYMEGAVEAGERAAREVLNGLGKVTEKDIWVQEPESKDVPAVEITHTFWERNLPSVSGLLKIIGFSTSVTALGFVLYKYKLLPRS
As to the kind of experiment: Activity on recombinant human MAO-A, Amplex Red method, 0.5 mM tyramine substrate. To be noted: read-out: Inhibitory Activity (IC50, nM) MAO-A. An outline of the steps: as §1

The target of a further experiment is T3, recombinant human VAP-1 (Homo sapiens, UniProt Q16853).
T3 construct: purchased R&D systems
T3 sequence (Q16853 1-763): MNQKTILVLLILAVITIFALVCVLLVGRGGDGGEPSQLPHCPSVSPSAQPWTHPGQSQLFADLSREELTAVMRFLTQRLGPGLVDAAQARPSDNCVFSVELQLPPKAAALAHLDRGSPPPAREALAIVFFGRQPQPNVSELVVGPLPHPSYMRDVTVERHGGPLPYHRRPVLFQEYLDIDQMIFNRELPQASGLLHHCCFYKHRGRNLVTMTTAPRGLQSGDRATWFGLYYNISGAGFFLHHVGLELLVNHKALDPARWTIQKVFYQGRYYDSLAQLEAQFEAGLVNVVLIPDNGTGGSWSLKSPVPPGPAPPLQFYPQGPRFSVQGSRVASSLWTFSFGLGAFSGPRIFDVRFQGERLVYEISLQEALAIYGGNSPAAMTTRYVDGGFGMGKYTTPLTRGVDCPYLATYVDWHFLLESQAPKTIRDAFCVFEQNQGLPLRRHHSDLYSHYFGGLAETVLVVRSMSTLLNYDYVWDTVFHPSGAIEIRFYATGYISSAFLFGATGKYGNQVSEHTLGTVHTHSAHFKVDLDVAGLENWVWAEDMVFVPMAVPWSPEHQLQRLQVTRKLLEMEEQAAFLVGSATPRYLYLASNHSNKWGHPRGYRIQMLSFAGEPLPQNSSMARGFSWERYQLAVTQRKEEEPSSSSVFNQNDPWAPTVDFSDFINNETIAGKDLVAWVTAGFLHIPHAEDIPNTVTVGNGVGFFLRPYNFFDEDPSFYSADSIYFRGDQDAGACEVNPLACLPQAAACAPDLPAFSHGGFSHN
Kind of experiment: Activity on recombinant human VAP-1, Amplex Red HRP-coupled hydrogen peroxide assay, benzylamine substrate. To be noted: recombinant human VAP-1, benzylamine substrate, read-out: Inhibitory Activity (IC50, nM) human VAP-1. An outline of the steps:
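Enzyme in 50 mM sodium phosphate pH 7.4 preincubated with compound 30 min at 37 °C, then 1 mM benzylamine, 200 µM Amplex Red and 1 U/mL HRP added. H2O2-derived resorufin fluorescence (ex 544/em 590 nm) followed over 1–2 h; signal-rate decrease versus DMSO control, 8-point curve, four-parameter logistic IC50.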

Experiment [3] concerns the target T4, recombinant human DAO (diamine oxidase) (Homo sapiens, UniProt P19801).
T4 construct: purchased R&D systems
T4 sequence (P19801 20-751): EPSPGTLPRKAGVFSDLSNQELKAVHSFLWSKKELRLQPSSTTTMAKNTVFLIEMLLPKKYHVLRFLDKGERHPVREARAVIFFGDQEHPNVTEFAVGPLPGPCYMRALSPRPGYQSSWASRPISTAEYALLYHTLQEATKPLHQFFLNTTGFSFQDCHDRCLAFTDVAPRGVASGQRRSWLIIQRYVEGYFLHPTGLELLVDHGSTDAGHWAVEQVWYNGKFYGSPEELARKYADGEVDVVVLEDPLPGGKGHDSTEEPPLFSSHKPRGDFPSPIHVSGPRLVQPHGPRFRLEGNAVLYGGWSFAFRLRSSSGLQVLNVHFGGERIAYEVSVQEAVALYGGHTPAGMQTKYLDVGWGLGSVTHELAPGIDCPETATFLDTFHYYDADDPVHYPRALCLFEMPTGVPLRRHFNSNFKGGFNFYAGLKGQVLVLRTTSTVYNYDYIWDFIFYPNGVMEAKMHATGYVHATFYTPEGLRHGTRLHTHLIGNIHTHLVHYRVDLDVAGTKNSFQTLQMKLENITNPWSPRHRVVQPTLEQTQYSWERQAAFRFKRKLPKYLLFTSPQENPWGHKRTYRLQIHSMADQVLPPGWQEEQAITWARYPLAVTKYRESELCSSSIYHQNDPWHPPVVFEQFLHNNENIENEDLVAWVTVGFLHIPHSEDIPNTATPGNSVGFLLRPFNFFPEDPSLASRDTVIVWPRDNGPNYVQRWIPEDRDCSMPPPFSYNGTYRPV
Kind of experiment: Activity on recombinant human DAO, Amplex Red method, 1 mM putrescine substrate. Particulars: recombinant human DAO, read-out: Inhibitory Activity (IC50, nM) DAO. An outline of the steps: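 Inhibition of recombinant human DAO (diamine oxidase, R&D systems) was assessed with the Amplex Red Hydrogen Peroxide Assay Kit. Hydrogen peroxide produced from 1 mM putrescine was detected through an HRP-coupled reaction that converts Amplex Red into fluorescent resorufin, read at 544 nm excitation and 590 nm emission. IC50 values came from four-parameter logistic fits in GraphPad Prism.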

The mark [4] stands for this setting: 1 mM putrescine, * = between 10 and 100 nM, ** = between 300 and 1000 nM.

The term IC50 denotes the point on the concentration scale where inhibition reaches its midpoint.

On to `NC/C(=C\F)Cn1ncn(-c2ccc(Br)cc2F)c1=O` [Example 12, 2-[(2E)-2-(aminomethyl)-3-fluoroprop-2-en-1-yl]-4-(4-bromo-2-fluorophenyl)-2,4-dihydro-3H-1,2,4-triazol-3-one hydrochloride], for which the IC50 in experiment [1] (1 mM benzylamine) was found to be 281 nM; in experiment [2] (0.5 mM tyramine), 1500 nM; at recombinant human VAP-1 (30 min preincubation at 37° C.) it was 0.75 nM; in experiment [3] (setting [4]), 38 nM.
Turning to `NC/C(=C\F)Cn1ncn(-c2cccc(-c3cccc4[nH]c(=O)ccc34)n2)c1=O` [Example 201, 5-(6-{1-[(2E)-2-(aminomethyl)-3-fluoroprop-2-en-1-yl]-5-oxo-1,5-dihydro-4H-1,2,4-triazol-4-yl}pyridin-2-yl)quinolin-2(1H)-one hydrochloride], the IC50 in experiment [1] (1 mM benzylamine substrate) was greater than 10000 nM; in experiment [2] (0.5 mM tyramine substrate), greater than 100000 nM; on recombinant human VAP-1, 1.3 nM; in experiment [3] (1 mM putrescine substrate), 17 nM.
Take `CC(C)c1nc(-c2cccc(-c3cc(-n4cnn(C/C(=C/F)CN)c4=O)ccn3)c2)no1` [Example 206, 2-[(2E)-2-(aminomethyl)-3-fluoroprop-2-en-1-yl]-4-(2-{3-[5-(propan-2-yl)-1,2,4-oxadiazol-3-yl]phenyl}pyridin-4-yl)-2,4-dihydro-3H-1,2,4-triazol-3-one hydrochloride]: the IC50 in experiment [1] (1 mM benzylamine substrate) was 110 nM; in experiment [2] (0.5 mM tyramine substrate) it was greater than 100000 nM; at recombinant human VAP-1, 0.7 nM; in experiment [3] (1 mM putrescine substrate), less than 10 nM.
As to `NC/C(=C\F)Cn1ncn(-c2cc(-c3ccc4sc(N)nc4c3)ccn2)c1=O` [Example 173, 4-[4-(2-amino-1,3-benzothiazol-5-yl)pyridin-2-yl]-2-[(2E)-2-(aminomethyl)-3-fluoroprop-2-en-1-yl]-2,4-dihydro-3H-1,2,4-triazol-3-one], the IC50 was greater than 10000 nM in experiment [1] (1 mM benzylamine substrate), greater than 100000 nM in experiment [2] (0.5 mM tyramine substrate), 0.41 nM on recombinant human VAP-1 and 5.9 nM in experiment [3] (1 mM putrescine substrate).
`CC(C)Sc1ccc(-c2cccc(-n3cnn(C/C(=C/F)CN)c3=O)c2)cc1` [Example 52, 2-[(2E)-2-(aminomethyl)-3-fluoroprop-2-en-1-yl]-4-[4′-(propan-2-ylsulfanyl)biphenyl-3-yl]-2,4-dihydro-3H-1,2,4-triazol-3-one hydrochloride]: the IC50 worked out at 3600 nM in experiment [1] (1 mM benzylamine), 50000 nM in experiment [2] (0.5 mM tyramine), 1.2 nM at recombinant human VAP-1 (30 min preincubation at 37° C.) and 24 nM in experiment [3] (setting [4]).
For the compound `Cc1cc(-c2ccc3cn[nH]c3c2)ncc1-n1cnn(C/C(=C/F)CN)c1=O` [Example 126, 2-[(2E)-2-(aminomethyl)-3-fluoroprop-2-en-1-yl]-4-[6-(1H-indazol-6-yl)-4-methylpyridin-3-yl]-2,4-dihydro-3H-1,2,4-triazol-3-one], the IC50 in experiment [1] (1 mM benzylamine) was 133 nM; in experiment [2] (0.5 mM tyramine) it was greater than 100000 nM; at recombinant human VAP-1 (30 min preincubation at 37° C.), 0.87 nM; in experiment [3] (setting [4]) it was less than 100 nM.
Turning to `Cn1cncc1C#Cc1cccc(-n2cnn(C/C(=C/F)CN)c2=O)n1` [Example 256, 2-[(E)-2-(aminomethyl)-3-fluoro-allyl]-4-[6-[2-(3-methylimidazol-4-yl)ethynyl]-2-pyridyl]-1,2,4-triazol-3-one], the IC50 was greater than 10000 nM in experiment [1] (1 mM benzylamine substrate), greater than 100000 nM in experiment [2] (0.5 mM tyramine substrate), 0.3 nM at recombinant human VAP-1 and 27 nM in experiment [3] (1 mM putrescine substrate).
For the compound `CC(=O)Nc1cc(-c2ccnc(-n3cnn(C/C(=C/F)CN)c3=O)c2)ccn1` [Example 168, N-(2′-{1-[(2E)-2-(aminomethyl)-3-fluoroprop-2-en-1-yl]-5-oxo-1,5-dihydro-4H-1,2,4-triazol-4-yl}-4,4′-bipyridin-2-yl)acetamide], the IC50 in experiment [1] (1 mM benzylamine substrate) is 159 nM; in experiment [2] (0.5 mM tyramine substrate), greater than 100000 nM; at recombinant human VAP-1, 0.39 nM; in experiment [3] (1 mM putrescine substrate), less than 30 nM.
Turning to `NC/C(=C/F)Cn1ncn(-c2cccc(-c3ccc(-c4nnc[nH]4)cc3)c2)c1=O` [Example 58, 2-[(2Z)-2-(aminomethyl)-3-fluoroprop-2-en-1-yl]-4-[4′-(4H-1,2,4-triazol-3-yl)biphenyl-3-yl]-2,4-dihydro-3H-1,2,4-triazol-3-one], the IC50 in experiment [1] (1 mM benzylamine) is greater than 10000 nM; in experiment [2] (0.5 mM tyramine) it was greater than 100000 nM; on recombinant human VAP-1 (30 min preincubation at 37° C.) it was 0.63 nM; in experiment [3] (setting [4]) it was less than 100 nM.
As for `NC/C(=C\F)Cn1ncn(-c2cccc(-c3ccc(OC(F)(F)F)cc3)c2)c1=O` [Example 50, 2-[(2E)-2-(aminomethyl)-3-fluoroprop-2-en-1-yl]-4-[4′-(trifluoromethoxy)biphenyl-3-yl]-2,4-dihydro-3H-1,2,4-triazol-3-one hydrochloride], the IC50 in experiment [1] (1 mM benzylamine) is 510 nM; in experiment [2] (0.5 mM tyramine), greater than 10000 nM; on recombinant human VAP-1 (30 min preincubation at 37° C.) it was 1 nM; in experiment [3] (setting [4]), less than 100 nM.
